The text below walks through data of US9079866B2, “Flap modulators” (JANSSEN PHARMACEUTICA NV, priority 2013, dated 2015).

Structures can show the parent of a compound that is named as a salt. Where two headings read alike, the source gives them in different places.

Assay [1] addresses human FLAP (Homo sapiens (Human), UniProt P20292). Briefly: FLAP binding assay (HTRF format). As to conditions: HTRF format. Put shortly: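 Binding of compounds to FLAP read out as HTRF ratio. Values are the mean of two assay plates, each sample run in duplicate per plate.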
Assay [2] relates to leukotriene pathway in human whole blood (LTB4 levels). In words: Human whole blood assay (A23187-stimulated LTB4). The class given is cell-based. The settings on record: Homo sapiens, read-out: LTB4 IC50 1:1. The gist of the method:
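Single-replicate data from at least one healthy donor: compound pre-incubated 15 min at 37° Celsius in 1:1 RPMI-diluted heparinised blood, followed by 30 min calcium ionophore A23187 (7 μg/mL) challenge at 37° Celsius. LTB4 in plasma quantified by kit; IC50 via 4-parameter equation.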

Where [3] appears, read: human FLAP wild type, average of two plates, duplicates.
[4] abbreviates: human whole blood diluted 1:1 in RPMI, A23187-stimulated LTB4.
The mark [5] stands for this setting: human whole blood diluted 1:1, A23187-stimulated.

Chain of human FLAP (P20292 whole entry): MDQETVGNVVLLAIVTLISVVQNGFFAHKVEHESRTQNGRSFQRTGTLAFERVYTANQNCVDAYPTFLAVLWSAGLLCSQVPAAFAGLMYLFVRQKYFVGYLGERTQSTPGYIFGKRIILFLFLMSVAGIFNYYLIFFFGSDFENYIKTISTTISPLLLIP

As a reminder, the Ki is a measure of affinity in units of concentration, obtained from inhibition or displacement. The term IC50 denotes the concentration that gives 50% inhibition. Consider `NCC1CN(S(=O)(=O)c2ccccc2-c2ccc(-c3cnc(N)cn3)c(F)c2)C1` [Example 124, 5-(2′-{[3-(Aminomethyl)azetidin-1-yl]sulfonyl}-3-fluorobiphenyl-4-yl)pyrazin-2-amine], for which the Ki in assay [1] (setting [3]) was determined as 35 nM. Also, in assay [2] (setting [4]), the IC50 was determined as 217 nM.

For the compound `CC(=O)N1CCN(S(=O)(=O)c2ccccc2-c2ccc(-c3cnc(N)cn3)c(F)c2)CC1` [Example 57, 5-{2′-[(4-Acetylpiperazin-1-yl)sulfonyl]-3-fluorobiphenyl-4-yl}pyrazin-2-amine], the Ki in assay [1] (setting [3]) was found to be 15 nM. Also, in assay [2] (setting [4]), the IC50 worked out at 252 nM.

On to `Nc1cnc(-c2ccc(-c3ccccc3S(=O)(=O)NCCCCCCO)cc2F)cn1` [Example 133, 4′-(5-Aminopyrazin-2-yl)-3′-fluoro-N-(6-hydroxyhexyl)biphenyl-2-sulfonamide], for which the Ki in assay [1] (setting [3]) came to 1 nM. Further, the IC50 in assay [2] (setting [4]) is 32 nM.

In assay [1] (setting [3]), `Nc1ncc(-c2ccc(-c3ccccc3S(=O)(=O)N3CCC[C@@H]3CO)cc2F)cn1` [Example 276, [(2R)-1-{[4′-(2-Aminopyrimidin-5-yl)-3′-fluorobiphenyl-2-yl]sulfonyl}pyrrolidin-2-yl]methanol trifluoroacetic acid salt] registered a Ki of 23 nM. Also, the IC50 in assay [2] (setting [4]) was 325 nM.

In turn, `CC(C)(CO)CNS(=O)(=O)c1ccccc1-c1ccc(-c2ncc(N)nc2C#N)c(F)c1` [Example 714, 4′-(5-Amino-3-cyanopyrazin-2-yl)-3′-fluoro-N-(3-hydroxy-2,2-dimethylpropyl)biphenyl-2-sulfonamide] showed a Ki in assay [1] (wild type FLAP) of 2.4 nM. Also, the IC50 in assay [2] (setting [5]) was 33.1 nM.

In turn, `C[C@H](O)CNS(=O)(=O)c1ccccc1-c1ccc(-c2ncc(N)nc2C#N)c(F)c1` [Example 707, 4′-(5-Amino-3-cyanopyrazin-2-yl)-3′-fluoro-N-[(2S)-2-hydroxypropyl]biphenyl-2-sulfonamide] gave a Ki in assay [1] (wild type FLAP) of 32.7 nM. Besides, the IC50 in assay [2] (setting [5]) was 127 nM.

With `CC(C)(C)NS(=O)(=O)c1ccccc1-c1ccc(-c2cnc3c(c2)OCCN3)c(F)c1` [Example 393, N-tert-Butyl-4′-(3,4-dihydro-2H-pyrido[3,2-b][1,4]oxazin-7-yl)-3′-fluorobiphenyl-2-sulfonamide], in assay [1] (setting [3]), the Ki was 1 nM. Further, in assay [2] (setting [4]), the IC50 was found to be 12 nM.

In assay [1] (wild type FLAP), `Nc1cnc(-c2ccc(-c3ccccc3Sc3ccncn3)cc2F)cn1` [Example 743, 5-(3-Fluoro-2′-(pyrimidin-4-ylthio)-[1,1′-biphenyl]-4-yl)pyrazin-2-amine] showed a Ki of 1.6 nM. In addition, the IC50 in assay [2] (setting [5]) was determined as 21.6 nM.

In assay [1] (setting [3]), `Nc1cnc(-c2ccc(-c3ccccc3S(=O)(=O)N3CCCCCC3)cc2F)cn1` [Example 53, 5-[2′-(Azepan-1-ylsulfonyl)-3-fluorobiphenyl-4-yl]pyrazin-2-amine] showed a Ki of 3 nM. The IC50 in assay [2] (setting [4]) is 238 nM.

`Nc1ncc(-c2ccc(-c3ccccc3S(=O)(=O)N[C@H]3CCNC3=O)cc2F)cn1` [Example 263, 4′-(2-Aminopyrimidin-5-yl)-3′-fluoro-N-[(3S)-2-oxopyrrolidin-3-yl]biphenyl-2-sulfonamide] came in with a Ki in assay [1] (setting [3]) of 169 nM. Also, the IC50 in assay [2] (setting [4]) came to 207 nM.

In the case of `Nc1cnc(-c2ccc(-c3ccccc3S(=O)(=O)NCC3(O)CCCCC3)cc2F)cn1` [Example 99, 4′-(5-Aminopyrazin-2-yl)-3′-fluoro-N-[(1-hydroxycyclohexyl)methyl]biphenyl-2-sulfonamide], affinity in assay [1] (setting [3]) was put at a Ki of 2 nM. The IC50 in assay [2] (setting [4]) came to 30 nM.

In assay [1] (setting [3]), `CC(C)S(=O)(=O)c1ccccc1-c1ccc(-c2cnc(N)cn2)c(F)c1` [Example 199, 5-{3-Fluoro-2′-[(1-methylethyl)sulfonyl]biphenyl-4-yl}pyrazin-2-amine] displayed a Ki of 39 nM. For the same compound, the IC50 in assay [2] (setting [4]) came out at 250 nM.

`Nc1ccc(-c2ccc(-c3ccccc3S(=O)(=O)N3CCCC3)cc2F)cn1` [Example 344, 5-(3-Fluoro-2′-(pyrrolidin-1-ylsulfonyl)-[1,1′-biphenyl]-4-yl)pyridin-2-amine] showed a Ki in assay [1] (setting [3]) of 81 nM. For the same compound, the IC50 in assay [2] (setting [4]) is more than 10000 nM.
